Experiments:
Format in all cases: cell-based
[1] = test system: Trichophyton mentagrophytes; assay: MIC by the tube test against Trichophyton mentagrophytes (Table I)
Source text: (§1) Table I illustrates the high activity of the compounds of this invention, using as examples the compounds numbered 5-25, which are compared to the known compounds 1-4, viz., the ethyl ester of 1-(1,2,3,4-tetrahydro-1-naphthyl)-imidazole-5-carboxylic acid (Etonam) and the commercially available 2-dimethylamino-6-(β-diethylaminoethoxy)-benzothiazole, dihydrochloride (Dimazol dihydrochloride), as well as N-(2-hydroxybenzyl)-imidazole and N-(4-hydroxybenzyl)-imidazole (Bull. Soc. Chim. France 1973, 1179). The MIC values were determined by the tube test.

Candida albicans = assay: MIC by the tube test against Candida albicans (Table I)
Source text: as §1

Trichophyton rubrum = assay: MIC by the tube test against Trichophyton rubrum (Table I)
Source text: as §1

SMILES | Minimum Inhibitory Concentration MIC against Trichophyton mentagrophytes [1] | Minimum Inhibitory Concentration MIC against Candida albicans (Candida albicans) | Minimum Inhibitory Concentration MIC against Trichophyton rubrum (Trichophyton rubrum)
Oc1ccccc1Cn1ccnc1 [Compound 3, N-(2-Hydroxybenzyl)-imidazole] | inactive | inactive | 
Oc1ccc(Cn2ccnc2)cc1 [Compound 4, N-(4-Hydroxybenzyl)-imidazole] | inactive | inactive | inactive
CCOC(=O)c1cncn1C1CCCc2ccccc21 (stereo not drawn) [Compound 1, 1-(1,2,3,4-Tetrahydro-1-naphthyl)-imidazole-5-carboxylic Acid Ethyl Ester] |  | inactive | 
CCN(CC)CCOc1ccc2nc(N(C)C)sc2c1.Cl.Cl [Compound 2, 2-Dimethylamino-6-(β-diethylaminoethoxy)-benzothiazole, dihydrochloride] | inactive | inactive | inactive
